Assays:
Human LDHA = Human LDHA (Homo sapiens (Human), UniProt P00338); test: human LDHA primary biochemical assay; conditions: biochemical LDHA inhibitory activity, assay of Example 1; activity level classes defined in nM
In short: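 Human LDHA at 2 nM with 0.06 mM NADH and 0.2 mM sodium pyruvate in 200 mM Tris HCl pH 7.4, 100 μM EDTA, 0.01% TWEEN-20 (final). NADH consumption coupled to resazurin/diaphorase (0.037 mM; 0.133 mg/mL); inhibition read by fluorescence.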

MiaPaCa2 cells = test: cell-based HT lactate assay by colorimetric/fluorometric detection (cellular inhibition of lactate production); conditions: Homo sapiens, MIA PaCa-2, assay of Example 6
Protocol: This example describes a cell-based metabolite assay by colorimetric/fluorometric detection employed in the characterization of a compound of formula (I) in an embodiment of the invention.
Cell-based HT Lactate assay is a miniaturized Biovision Lactate Colorimetric/Fluorometric Assay Kit (Cat #K607-100). The assay is roughly a 3.5 hour assay run in a 1536 plate format. Cell number optimization should be run for each cell line to achieve an optimal number in which lactate production equals roughly 90% of the standard curve range. Cell number per well optimization has been performed with the following cell lines: MiaPaCa2—500 cells/well, SNU398—500 cells/well, and P493—500 cells/well.

Compound	IC50 (Human LDHA) [nM]	IC50 (MiaPaCa2 cells) [nM]
NS(=O)(=O)c1ccc(Cc2c(-c3ccc(F)c(C4=CCC(C(F)(F)F)CC4)c3)nn(-c3nc(C(=O)O)cs3)c2CC2CC2)cc1F (stereo not drawn) [Compound 102, 2-(5-(cyclopropylmethyl)-3-(6-fluoro-4′-(trifluoromethyl)-2′,3′,4′,5′-tetrahydro-[1,1′-biphenyl]-3-yl)-4-(3-fluoro-4-sulfamoylbenzyl)-1H-pyrazol-1-yl)thiazole-4-carboxylic acid]	< 100	< 1000
NS(=O)(=O)c1ccc(Cc2c(-c3ccc(F)c(C4=Cc5ccccc5C4)c3)nn(-c3nc(C(=O)O)cs3)c2CC2CC2)cc1F [Compound 105, 2-(5-(cyclopropylmethyl)-3-(4-fluoro-3-(1H-inden-2-yl)phenyl)-4-(3-fluoro-4-sulfamoylbenzyl)-1H-pyrazol-1-yl)thiazole-4-carboxylic acid]	< 100	< 1000
CC1(C)CC=C(c2cc(-c3nn(-c4nc(C(=O)O)cs4)c(CC4CC4)c3Cc3ccc(S(N)(=O)=O)c(F)c3)ccc2F)CC1 [Compound 106, 2-(5-(cyclopropylmethyl)-3-(6-fluoro-4′,4′-dimethyl-2′,3′,4′,5′-tetrahydro-[1,1′-biphenyl]-3-yl)-4-(3-fluoro-4-sulfamoylbenzyl)-1H-pyrazol-1-yl) thiazole-4-carboxylic acid]	< 100	< 1000
CCC#Cc1cc(-c2nn(-c3nc(C(=O)O)cs3)c(CC3CC3)c2Cc2ccc([S+](N)(=O)[O-])c(F)c2)ccc1F [Compound 109, 2-(3-(3-(but-1-yn-1-yl)-4-fluorophenyl)-5-(cyclopropylmethyl)-4-(3-fluoro-4-sulfamoylbenzyl)-1H-pyrazol-1-yl)thiazole-4-carboxylic acid]		< 1000
Cc1ncc(C#Cc2cc(-c3nn(-c4nc(C(=O)O)cs4)c(CC4CC4)c3Cc3ccc(S(N)(=O)=O)c(F)c3)ccc2F)s1 [Compound 111, 2-(5-(cyclopropylmethyl)-3-(4-fluoro-3-((2-methylthiazol-5-yl)ethynyl)phenyl)-4-(3-fluoro-4-sulfamoylbenzyl)-1H-pyrazol-1-yl)thiazole-4-carboxylic acid]	< 100	< 1000
Cc1ccc(C#Cc2cccc(-c3nn(-c4nc(C(=O)O)cs4)c(CC4CC4)c3Cc3ccc(S(N)(=O)=O)c(F)c3)c2)s1 [Compound 112, 2-(5-(cyclopropylmethyl)-4-(3-fluoro-4-sulfamoylbenzyl)-3-(3-((5-methylthiophen-2-yl)ethynyl)phenyl)-1H-pyrazol-1-yl)thiazole-4-carboxylic acid]	< 100	< 1000
Cc1cnc(C#Cc2cc(-c3nn(-c4nc(C(=O)O)cs4)c(CC4CC4)c3Cc3ccc(S(N)(=O)=O)c(F)c3)ccc2F)s1 [Compound 114, 2-(5-(cyclopropylmethyl)-3-(4-fluoro-3-((5-methylthiazol-2-yl)ethynyl)phenyl)-4-(3-fluoro-4-sulfamoylbenzyl)-1H-pyrazol-1-yl) thiazole-4-carboxylic acid]	< 100	< 1000
Cc1ccc(C#Cc2cccc(-c3nn(-c4nc(C(=O)O)cs4)c(CCC4CC4)c3Cc3ccc(S(N)(=O)=O)c(F)c3)c2)s1 [Compound 115, 2-(5-(2-cyclopropylethyl)-4-(3-fluoro-4-sulfamoylbenzyl)-3-(3-((5-methylthiophen-2-yl)ethynyl)phenyl)-1H-pyrazol-1-yl)thiazole-4-carboxylic acid]	< 100	< 1000
CC(C)c1ccc(-c2cc(-c3nn(-c4nc(C(=O)O)cs4)c(CC4CC4)c3Cc3ccc(S(N)(=O)=O)c(F)c3)ccc2F)cc1 [Compound 142, 2-(5-(cyclopropylmethyl)-3-(6-fluoro-4′-isopropyl-[1,1′-biphenyl]-3-yl)-4-(3-fluoro-4-sulfamoylbenzyl)-1H-pyrazol-1-yl)thiazole-4-carboxylic acid]		< 1000
NS(=O)(=O)c1ccc(Cc2c(-c3cccc(C#Cc4ccc(C5CCC5)s4)c3)nn(-c3nc(C(=O)O)cs3)c2CC2CC2)cc1F [Compound 245, 2-(3-(3-((5-cyclobutylthiophen-2-yl)ethynyl)phenyl)-5-(cyclopropylmethyl)-4-(3-fluoro-4-sulfamoylbenzyl)-1H-pyrazol-1-yl)thiazole-4-carboxylic acid]	100 to 1000	
NS(=O)(=O)c1ccc(Cc2c(-c3cccc(C#Cc4ccc(C5CCC5)s4)c3)nn(-c3nc(C(=O)O)cs3)c2CCC2CC2)cc1F [Compound 246, 2-(3-(3-((5-cyclobutylthiophen-2-yl)ethynyl)phenyl)-5-(2-cyclopropylethyl)-4-(3-fluoro-4-sulfamoylbenzyl)-1H-pyrazol-1-yl)thiazole-4-carboxylic acid]	100 to 1000	
Cc1ccc(C#Cc2cccc(-c3nn(-c4nc(C(=O)O)cs4)c(CCCC4CC4)c3Cc3ccc(S(N)(=O)=O)c(F)c3)c2)s1 [Compound 248, 2-(5-(3-cyclopropylpropyl)-4-(3-fluoro-4-sulfamoylbenzyl)-3-(3-((5-methylthiophen-2-yl)ethynyl)phenyl)-1H-pyrazol-1-yl)thiazole-4-carboxylic acid]	100 to 1000	
Cc1ccc(C#Cc2cc(-c3nn(-c4nc(C(=O)O)cs4)c(CC4CC4)c3Cc3ccc(S(N)(=O)=O)c(F)c3)ccc2F)s1 [Compound 249, 2-(5-(cyclopropylmethyl)-3-(4-fluoro-3-((5-methylthiophen-2-yl)ethynyl)phenyl)-4-(3-fluoro-4-sulfamoylbenzyl)-1H-pyrazol-1-yl)thiazole-4-carboxylic acid]	< 100	

Other lines, results leading:

IC50 (Human LDHA) [nM]	IC50 (MiaPaCa2 cells) [nM]	Compound
< 100	< 1000	CC1CC=C(c2cc(-c3nn(-c4nc(C(=O)O)cs4)c(CC4CC4)c3Cc3ccc(S(N)(=O)=O)c(F)c3)ccc2F)CC1 (stereo not drawn) [Compound 101, 2-(5-(cyclopropylmethyl)-3-(6-fluoro-4′-methyl-2′,3′,4′,5′-tetrahydro-[1,1′-biphenyl]-3-yl)-4-(3-fluoro-4-sulfamoylbenzyl)-1H-pyrazol-1-yl)thiazole-4-carboxylic acid]
< 100	< 1000	CC1CCCC=C1c1cc(-c2nn(-c3nc(C(=O)O)cs3)c(CC3CC3)c2Cc2ccc(S(N)(=O)=O)c(F)c2)ccc1F (stereo not drawn) [Compound 103, 2-(5-(cyclopropylmethyl)-3-(6-fluoro-2′-methyl-2′,3′,4′,5′-tetrahydro-[1,1′-biphenyl]-3-yl)-4-(3-fluoro-4-sulfamoylbenzyl)-1H-pyrazol-1-yl)thiazole-4-carboxylic acid]
< 100	< 1000	COC1CC=C(c2cc(-c3nn(-c4nc(C(=O)O)cs4)c(CC4CC4)c3Cc3ccc(S(N)(=O)=O)c(F)c3)ccc2F)CC1 (stereo not drawn) [Compound 104, 2-(5-(cyclopropylmethyl)-3-(6-fluoro-4′-methoxy-2′,3′,4′,5′-tetrahydro-[1,1′-biphenyl]-3-yl)-4-(3-fluoro-4-sulfamoylbenzyl)-1H-pyrazol-1-yl) thiazole-4-carboxylic acid]
< 100	< 1000	NS(=O)(=O)c1ccc(Cc2c(-c3ccc(F)c(C4=CCC(F)(F)CC4)c3)nn(-c3nc(C(=O)O)cs3)c2CC2CC2)cc1F [Compound 107, 2-(5-(cyclopropylmethyl)-4-(3-fluoro-4-sulfamoylbenzyl)-3-(4′,4′,6-trifluoro-2′,3′,4′,5′-tetrahydro-[1,1′-biphenyl]-3-yl)-1H-pyrazol-1-yl)thiazole-4-carboxylic acid]
< 100	< 1000	NS(=O)(=O)c1ccc(Cc2c(-c3ccc(F)c(C4=CCC5(CC4)CC5)c3)nn(-c3nc(C(=O)O)cs3)c2CC2CC2)cc1F [Compound 108, 2-(5-(cyclopropylmethyl)-3-(4-fluoro-3-(spiro[2.5]oct-5-en-6-yl)phenyl)-4-(3-fluoro-4-sulfamoylbenzyl)-1H-pyrazol-1-yl)thiazole-4-carboxylic acid]
100 to 1000	< 1000	CC(C)(C)c1ccc(C#Cc2cc(-c3nn(-c4nc(C(=O)O)cs4)c(CC4CC4)c3Cc3ccc(S(N)(=O)=O)c(F)c3)ccc2F)s1 [Compound 110, 2-(3-(3-((5-(tert-butyl)thiophen-2-yl)ethynyl)-4-fluorophenyl)-5-(cyclopropylmethyl)-4-(3-fluoro-4-sulfamoylbenzyl)-1H-pyrazol-1-yl)thiazole-4-carboxylic acid]
< 100	< 1000	Cc1ccc(C#Cc2cc(-c3nn(-c4nc(C(=O)O)cs4)c(CCC4CC4)c3Cc3ccc(S(N)(=O)=O)c(F)c3)ccc2F)s1 [Compound 113, 2-(5-(2-cyclopropylethyl)-3-(4-fluoro-3-((5-methylthiophen-2-yl)ethynyl)phenyl)-4-(3-fluoro-4-sulfamoylbenzyl)-1H-pyrazol-1-yl)thiazole-4-carboxylic acid]
100 to 1000		NS(=O)(=O)c1ccc(Cc2c(-c3cccc(C#Cc4ccc(C5CC5)s4)c3)nn(-c3nc(C(=O)O)cs3)c2CCC2CC2)cc1F [Compound 244, 2-(5-(2-cyclopropylethyl)-3-(3-((5-cyclopropylthiophen-2-yl)ethynyl)phenyl)-4-(3-fluoro-4-sulfamoylbenzyl)-1H-pyrazol-1-yl)thiazole-4-carboxylic acid]
< 100		Cc1ccc(C#Cc2cccc(-c3nn(-c4nc(C(=O)O)co4)c(CC4CC4)c3Cc3ccc(S(N)(=O)=O)c(F)c3)c2)s1 [Compound 247, 2-(5-(cyclopropylmethyl)-4-(3-fluoro-4-sulfamoylbenzyl)-3-(3-((5-methylthiophen-2-yl)ethynyl)phenyl)-1H-pyrazol-1-yl)oxazole-4-carboxylic acid]
